# Laboratory results as given in patent US20090012170A1, “TREATMENT OF SYMPTOMS OF MOTOR DYSFUNCTION” (priority 2005, published 2009).
# Tested on: PD patients
# Assay: Pooled analysis of three double blind, placebo-controlled studies and their open-label extensions: earlier vs. delayed start of entacapone adjunct to levodopa/DDC inhibitor
# Type: in vivo, human
# Method: A study was carried out to evaluate the effect of earlier vs. delayed start of entacapone adjunct to traditional levodopa/DDC inhibitor treatment on the long-term Parkinson's disease symptom control up to 5 years.
# Analysis of pooled data of three pivotal double blind, placebo-controlled studies, and their respective long-term open-label extension studies up to 5 years on entacapone adjunct to optimised levodopa/DDC inhibitor and other PD treatment.
# A total of 488 PD patients, of whom 269 were on entacapone and 219 on placebo during the 6-month double blind phase, continued with open entacapone treatment in the long-term extension phases up to 5 years. UPDRS III assessment and the mean daily levodopa dose were reported until the point when a minimum of 10 patients in each treatment arm was available, i.e. up to five years.
compound,measurement,setting,value
"CCN(CC)C(=O)/C(C#N)=C/c1cc(O)c(O)c([N+](=O)[O-])c1 [entacapone, (E)-2-cyano-3-(3,4-dihydroxy-5-nitrophenyl)-N-diethyl-2 propenamide]",decrease of mean daily levodopa dose after initiation of open entacapone,"delayed start group, comparable with the decrease in the earlier start group at the beginning of the double-blind phase, thereafter below baseline in both groups",about 70 mg
same,mean difference in UPDRS III over time between the earlier and delayed start treatment groups,"entacapone adjunct to levodopa/DDC inhibitor, earlier vs 6 months delayed start, up to 5 years, 95%CI [−3.01, −0.31], repeated measures analysis, p<0.05",−1.66
